According to ChEMBL document CHEMBL1141735, “HIV-inhibitory and cytotoxic oligostilbenes from the leaves of Hopea malibato” (J Nat Prod, 1998):
≈ marks a conversion by molar mass, not a printed value.

Legend:
CEM-SS = assay: Cytotoxicity against human CEM-SS cells; format: cell-based
[1] = tested on: Human immunodeficiency virus; assay: Antiviral activity against HIV infected in human CEM-SS cells; format: functional, organism-based; conditions: Human immunodeficiency virus 1, CEM-SS

EC50 [1] [µg/mL] | Compound | IC50 (CEM-SS) [µg/mL]
 | Oc1ccc(-c2oc3cc(O)cc4c3c2-c2cc(O)cc(O)c2[C@H](c2ccc(O)cc2)[C@H]4O)cc1 [MALIBATOL A] | 13 (≈ 27.8 µM)
46 (≈ 49 µM) | Oc1ccc([C@H]2c3c(O)cc(O)cc3[C@@H]3c4c(cc(O)cc4[C@]2(O)[C@@]2(O)c4cc(O)cc5c4[C@@H](c4cc(O)cc(O)c4[C@@H]2c2ccc(O)cc2)[C@H](c2ccc(O)cc2)O5)O[C@H]3c2ccc(O)cc2)cc1 [DIBALANOCARPOL] | 
 | Oc1ccc([C@H]2c3c(O)cc(O)c(O)c3-c3c(-c4ccc(O)c(O)c4)oc4cc(O)cc(c34)[C@@H]2O)cc1 [MALIBATOL B] | 21 (≈ 42 µM)
20 (≈ 42.5 µM) | Oc1ccc([C@H]2c3c(O)cc(O)cc3[C@@H]3c4c(cc(O)cc4[C@H]2O)O[C@H]3c2ccc(O)cc2)cc1 [BALANOCARPOL] | 
